According to patent publication US9920063B2, “Melampomagnolide B derivatives” (Board of Trustees of the University of Arkansas, priority 2013, dated 2018):
Entries after “also recorded” stand apart in the source; their conditions may differ. Read-outs that look alike come from different tables or passages of the source.

Tests used:
M9 ENL cells [1] = settings: for EC50: M9ENL AML cell lines, 24 hours of drug exposure; for Reduction of cell viability: M9 ENL cells, lowest concentration tested (5, 10 and 20 μM tested); for Fold greater cytotoxicity than PTL: M9 cell lines
Description: (§1) Carbamate and carbonate derivatives of MMB were also screened for activity against M9 ENL cells at concentrations of 5, 10 and 20 μM (FIG. 10). […] Additionally, succinic amide derivatives of MMB were screened for activity against M9 ENL cells at concentrations of 5, 10 and 20 μM (FIG. 11).
(§2) Ester and amide derivatives of melampomagnolide B were screened for anti-leukemic activity against M9ENL AML cell lines (FIG. 12; FIG. 14; FIG. 15; FIG. 16). For each compound, in vitro cell culture studies were performed in which a range of concentrations (0.25-20 μM) was tested for cytotoxicity against leukemia cell lines, primary leukemia specimens and normal bone marrow controls.

[2] = test system: panel of 60 human cancer cell lines; test: Screen against a panel of 60 human tumor cell lines (single dose and five dose), panel and sub-panel statements; assay type: cell-based; settings: for Outcome of initial single dose screening: single concentration 10^−5 M, more than 60% growth inhibition in at least eight cell lines of the panel; for Growth inhibition compared to PTL (1) and DMAPT (2): all human tumor cell lines, with the exception of the leukemia cell line subpanel; for Antileukemic activity compared to parent compound MMB: sub-panel of human leukemia cells; for Activity in NCI single dose screen: single concentration of 10^−5 M
M9 ENL cells [3] = test: cells; settings: 24 h
Description: as §1, §2

AML 052308 cells = test: Antileukemic activity against AML 052308 cells in culture
Description: For each compound, in vitro cell culture studies were performed in which a range of concentrations (0.25-20 μM) was tested for cytotoxicity against leukemia cell lines, primary leukemia specimens and normal bone marrow controls.

SMILES | Outcome of initial single dose screening [2] | EC50 (M9 ENL cells [3]) [µM] | further results
C=C1C(=O)O[C@H]2[C@H]1CC/C(COC(=O)c1cc3cc(OC)ccc3[nH]1)=C\CC[C@@]1(C)O[C@@H]21 [BS-2-01] | selected for five dose screening | – | EC50 (M9 ENL cells [1]): 2.2 µM
C=C1C(=O)OC2C1CCC(COC(=O)c1cc3cc(Cl)ccc3[nH]1)=CCCC1(C)OC21 (stereo not drawn) [BS-2-30] | selected for five dose screening | – | –
C=C1C(=O)OC2C1CCC(COC(=O)c1cc3ccccc3s1)=CCCC1(C)OC21 (stereo not drawn) [BS-2-65] | selected for five dose screening | – | –
C=C1C(=O)OC2C1CCC(COC(=O)c1cc3cc(F)ccc3[nH]1)=CCCC1(C)OC21 (stereo not drawn) [BS-2-68] | selected for five dose screening | – | –
C=C1C(=O)O[C@H]2[C@H]1CC/C(COC(=O)N1CCC(F)(F)CC1)=C\CC[C@@]1(C)O[C@@H]21 [Compound 6a, ((1aR,7aS,10aS,10bS,E)-1a-methyl-8-methylene-9-oxo-1a,2,3,6,7,7a,8,9,10a,10b-decahydrooxireno[2′,3′:9,10]cyclodeca[1,2-b]furan-5-yl)methyl-4,4-difluoropiperidine-1-carboxylate] | – | – | Growth inhibition compared to PTL (1) and DMAPT (2) [2]: generally exhibited improved growth inhibition against all human tumor cell lines when compared to PTL (1) and DMAPT (2); Antileukemic activity compared to parent compound MMB [2]: more potent than the parent compound
C=C1C(=O)O[C@H]2[C@H]1CC/C(COC(=O)NCCN1CCCC1)=C\CC[C@@]1(C)O[C@@H]21 [Compound 6b, ((1aR,7aS,10aS,10bS,E)-1a-methyl-8-methylene-9-oxo-1a,2,3,6,7,7a,8,9,10a,10b-decahydrooxireno[2′,3′:9,10]cyclodeca[1,2-b]furan-5-yl)methyl-(2-(pyrrolidin-1-yl)ethyl)carbamate] | selected for a five-dose screening | – | –
C=C1C(=O)O[C@H]2[C@H]1CC/C(COC(=O)NCCc1ccccn1)=C\CC[C@@]1(C)O[C@@H]21 [Compound 6c, ((1aR,7aS,10aS,10bS,E)-1a-methyl-8-methylene-9-oxo-1a,2,3,6,7,7a,8,9,10a,10b-decahydrooxireno[2′,3′:9,10]cyclodeca[1,2-b]furan-5-yl)methyl-(2-(pyridin-2-yl)ethyl)carbamate] | selected for a five-dose screening | – | –
C=C1C(=O)O[C@H]2[C@H]1CC/C(COC(=O)NCCN1CCOCC1)=C\CC[C@@]1(C)O[C@@H]21 [Compound 6d, ((1aR,7aS,10aS,10bS,E)-1a-methyl-8-methylene-9-oxo-1a,2,3,6,7,7a,8,9,10a,10b-decahydrooxireno[2′,3′:9,10]cyclodeca[1,2-b]furan-5-yl)-methyl(2-morpholinoethyl) carbamate] | selected for a five-dose screening | – | –
C=C1C(=O)O[C@H]2[C@H]1CC/C(COC(=O)Nc1n[nH]c(SC)n1)=C\CC[C@@]1(C)O[C@@H]21 [Compound 6e, ((1aR,7aS,10aS,10bS,E)-1a-methyl-8-methylene-9-oxo-1a,2,3,6,7,7a,8,9,10a,10b-decahydrooxireno[2′,3′:9,10]cyclodeca[1,2-b]furan-5-yl)methyl-(5-(methylthio)-1H-1,2,4-triazol-3-yl)carbamate] | selected for a five-dose screening | – | Growth inhibition compared to PTL (1) and DMAPT (2) [2]: generally exhibited improved growth inhibition against all human tumor cell lines when compared to PTL (1) and DMAPT (2); Antileukemic activity compared to parent compound MMB [2]: more potent than the parent compound
C=C1C(=O)O[C@H]2[C@H]1CC/C(COC(=O)NCCN1CCCCC1)=C\CC[C@@]1(C)O[C@@H]21 [JVM 2-13] | selected for a five-dose screening | – | –
C=C1C(=O)O[C@H]2[C@H]1CC/C(COC(=O)OCCCN1CCCCC1)=C\CC[C@@]1(C)O[C@@H]21 [JVM 2-26] | selected for a five-dose screening | – | –
C=C1C(=O)O[C@H]2[C@H]1CC/C(COC(=O)NCCCCCCO)=C\CC[C@@]1(C)O[C@@H]21 [JVM 2-31] | selected for a five-dose screening | – | –
C=C1C(=O)O[C@H]2[C@H]1CC/C(COC(=O)OCCN(C)C)=C\CC[C@@]1(C)O[C@@H]21 [JVM 2-35] | selected for a five-dose screening | – | –
C=C1C(=O)O[C@H]2[C@H]1CC/C(COC(=O)OC)=C\CC[C@@]1(C)O[C@@H]21 [JVM 2-40] | selected for a five-dose screening | – | –
C=C1C(=O)O[C@H]2[C@H]1CC/C(COC(=O)N1CCN(C)CC1)=C\CC[C@@]1(C)O[C@@H]21 [JVM 2-44] | selected for a five-dose screening | – | –
C=C1C(=O)O[C@H]2[C@H]1CC/C(COC(=O)NCCO)=C\CC[C@@]1(C)O[C@@H]21 [JVM 2-50] | selected for a five-dose screening | – | –
C=C1C(=O)O[C@H]2[C@H]1CC/C(COC(=O)NC)=C\CC[C@@]1(C)O[C@@H]21 [JVM 2-57] | selected for a five-dose screening | – | –
C=C1C(=O)O[C@H]2[C@H]1CC/C(COC(=O)OCCN1CCCC1)=C\CC[C@@]1(C)O[C@@H]21 [JVM 2-59] | – | – | Reduction of cell viability (M9 ENL cells [1]): greater than 50%
C=C1C(=O)O[C@H]2[C@H]1CC/C(COC(=O)OCCN1CCOCC1)=C\CC[C@@]1(C)O[C@@H]21 [JVM 2-60] | – | – | Reduction of cell viability (M9 ENL cells [1]): greater than 50%
C=C1C(=O)O[C@H]2[C@H]1CC/C(COC(=O)N1CCC(F)(F)CC1)=C\CC[C@@]1(C)O[C@@H]21 [JVM 2-66] | selected for a five-dose screening | – | Reduction of cell viability (M9 ENL cells [1]): greater than 50%

SMILES | Outcome of initial single dose screening [2] | EC50 (M9 ENL cells [3]) [µM] | further results
C=C1C(=O)O[C@H]2[C@H]1CC/C(COC(=O)CCC(=O)N1CCC(C)CC1)=C\CC[C@@]1(C)O[C@@H]21 [JVM 2-70] | selected for a five-dose screening | – | Reduction of cell viability (M9 ENL cells [1]): greater than 50%
C=C1C(=O)O[C@H]2[C@H]1CC/C(COC(=O)c1cc(OC)c(OC)c(OC)c1)=C\CC[C@@]1(C)O[C@@H]21 [JVM 3-22] | – | 4.7 | –
C=C1C(=O)O[C@H]2[C@H]1CC/C(COC(=O)c1ccc(Br)cc1)=C\CC[C@@]1(C)O[C@@H]21 [JVM 3-30] | – | 3.3 | –
C=C1C(=O)O[C@H]2[C@H]1CC/C(COC(=O)c1ccc3ccccc3c1)=C\CC[C@@]1(C)O[C@@H]21 [JVM 3-36, ((1aR,7aS,10aS,10bS,E)-1a-methyl-8-methylene-9-oxo-1a,2,3,6,7,7a,8,9,10a,10b-decahydrooxireno[2′,3′:9,10]cycodeca[1,2-b]furan-5-yl)methyl 2-naphthoate] | – | 1.7 | Fold greater cytotoxicity than PTL (M9 ENL cells [1]): 3 fold
C=C1C(=O)O[C@H]2[C@H]1CC/C(COC(=O)c1cccc3ccccc13)=C\CC[C@@]1(C)O[C@@H]21 [JVM 3-38] | – | 2.9 | –
C=C1C(=O)O[C@H]2[C@H]1CC/C(COC(=O)c1ccc(C#N)cc1)=C\CC[C@@]1(C)O[C@@H]21 [JVM 3-39] | – | 11 | –
C=C1C(=O)O[C@H]2[C@H]1CC/C(COC(=O)c1ccc(Cl)cc1)=C\CC[C@@]1(C)O[C@@H]21 [JVM 3-41] | – | 13 | –
C=C1C(=O)O[C@H]2[C@H]1CC/C(COC(=O)c1ccc(OC)cc1OC)=C\CC[C@@]1(C)O[C@@H]21 [JVM 3-44] | – | 3.5 | –
C=C1C(=O)O[C@H]2[C@H]1CC/C(C(=O)N1CCN(C)CC1)=C\CC[C@@]1(C)O[C@@H]21 [JVM 3-46] | – | 28 | –
C=C1C(=O)O[C@H]2[C@H]1CC/C(C(=O)N1CCC(F)(F)CC1)=C\CC[C@@]1(C)O[C@@H]21 [JVM 3-50] | – | 3.5 | –
C=C1C(=O)O[C@H]2[C@H]1CC/C(C(=O)N1CCC(C)CC1)=C\CC[C@@]1(C)O[C@@H]21 [JVM 3-51] | – | 12 | –
C=C1C(=O)O[C@H]2[C@H]1CC/C(C(=O)N1CCCCC1)=C\CC[C@@]1(C)O[C@@H]21 [JVM 3-52] | – | 8.3 | –
C=C1C(=O)O[C@H]2[C@H]1CC/C(C(=O)Nc1n[nH]c(SC)n1)=C\CC[C@@]1(C)O[C@@H]21 [JVM 3-53, (1aR,7aS,10aS,10bS,E)-1a-methyl-8-methylene-N-(5-(methylthio)-1H-1,2,4-triazol-3-yl)-9-oxo-1a,2,3,6,7,7a,8,9,10a,10b-decahydrooxireno[2′,3′:9,10]cyclodeca[1,2-b]furan-5-carboxamide] | – | 0.016 | Fold greater cytotoxicity than PTL (M9 ENL cells [1]): ~30 fold
C=C1C(=O)O[C@H]2[C@H]1CC/C(C(=O)n1ccnc1C)=C\CC[C@@]1(C)O[C@@H]21 [JVM 3-57] | – | 5.9 | –
C=C1C(=O)O[C@H]2[C@H]1CC/C(CNC(=O)Cc1c[nH]c3ccccc13)=C\CC[C@@]1(C)O[C@@H]21 [JVM 4-14] | – | – | Activity in NCI single dose screen [2]: potent activity against all leukemia lines tested as well as some NSCLC, colon cancer, melanoma, renal cancer and breast cancer cell lines; also recorded: moderate activity against CNS cancer and ovarian cancer
C=C1C(=O)O[C@H]2[C@H]1CC/C(CNC(=O)c1cc3ccccc3[nH]1)=C\CC[C@@]1(C)O[C@@H]21 [JVM 4-19] | – | – | Activity in NCI single dose screen [2]: did not show potent activity against leukemia cell lines; also recorded: potent activity against the majority of colon cancer, melanoma, renal cancer, prostate cancer and breast cancer cell lines tested; also recorded: moderate activity against NSCLC, CNS cancer and ovarian cancer cell lines
C=C1C(=O)O[C@H]2[C@H]1CC/C(COC(=S)n1ccnc1)=C\CC[C@@]1(C)O[C@@H]21 [JVM 66] | selected for a five-dose screening | – | –
C=C1C(=O)O[C@H]2[C@H]1CC/C(COC(=O)CCC(=O)NCc1ccc(Cl)nc1)=C\CC[C@@]1(C)O[C@@H]21 [JVM 96] | selected for a five-dose screening | – | –
C=C1C(=O)O[C@H]2[C@H]1CC/C(COC(=O)c1ccc(Cl)nc1)=C\CC[C@@]1(C)O[C@@H]21 [JVM 340] | – | – | EC50 (M9 ENL cells [1]): 11 µM
C=C1C(=O)OC2C1CC/C(CO)=C\CCC1(C)OC21 (stereo not drawn) [MMB, Melampomagnolide B] | – | – | EC50 (AML 052308 cells): 16 µM
